The source of these data is ChEMBL document CHEMBL1158749, “Cytotoxic cembranoid diterpenes from a soft coral Sinularia gibberosa” (J Nat Prod, 2005).

SMILES strings stand for the structures. ≈ marks a conversion by molar mass, not a printed value.

What all share (format): functional, cell-based
Assay [1] concerns HL-60. Nature of the assay: Cytotoxicity against human HL60 cells by MTT assay.
The test system of assay [2] is BGC-823. Briefly: Cytotoxicity against human BGC823 cells by SRB assay.
In assay [3] the test system is MDA-MB-435. Briefly: Cytotoxicity against human MDA-MB-435 cells by SRB assay. A general note: The SRB assay estimates cell density from bound dye.

What is called IC50 is the concentration at which inhibition is half-maximal. With `C=C1C(=O)O[C@@H]2[C@@H]1C[C@H](O)[C@@](O)(CO)CC/C=C(\C)CC/C=C(\C)[C@@H]2O` [SINULAROLIDE A], the IC50 in assay [1], in assay [2] and in assay [3] was over 10 µg/mL each time.

Take `C=C1C(=O)O[C@@H]2[C@@H]1C[C@H]1O[C@]1(CO)CC/C=C(\C)CC/C=C(\C)[C@H]2O` [SINULAROLIDE B]: the values for the IC50 in assay [1], in assay [2] and in assay [3] were 5.2 µg/mL (≈ 14.9 µM), 6.3 µg/mL (≈ 18.1 µM) and 8 µg/mL (≈ 23 µM), respectively.

For `C=C1C(=O)O[C@@H]2[C@@H]1C[C@H]1O[C@]1(CO)CC/C=C(\C)CC/C=C(\C)[C@@H]2O` [SINULAROLIDE C], the IC50 in assay [1] came to 5.1 µg/mL (≈ 14.6 µM); in assay [2] it was 5.2 µg/mL (≈ 14.9 µM); in assay [3], 7.7 µg/mL (≈ 22.1 µM).

For the molecule `C=C1C(=O)O[C@H]2C/C(C)=C/CC/C(C)=C/CC[C@@]3(CO)O[C@@H]3C[C@H]12` [SINULAROLIDE D], the IC50 in assay [1] is 2.3 µg/mL (≈ 6.92 µM); in assay [2] it was 6.1 µg/mL (≈ 18.3 µM); in assay [3], over 10 µg/mL.

Regarding `C=C1C(=O)O[C@@H]2[C@@H]1C[C@@H]1O[C@]1(C)CC/C=C(\C)CC/C=C(\C)[C@@H]2O` [SINULAROLIDE E], the results for the IC50 in assay [1], in assay [2] and in assay [3] were 6 µg/mL (≈ 18 µM), 8.6 µg/mL (≈ 25.9 µM) and 2.1 µg/mL (≈ 6.32 µM), respectively.
